Test results reported in patent publication US20080020421A1, “METHODS OF SCREENING AGENTS FOR CYTOTOXIC AND ANTIMICROBIAL ACTIVITY” (priority 2006, published 2008).

tested on: HeLa-GFP cells; assay: HeLa-GFP fluorometric cytotoxicity assay; details: 2 μg/ml, 18 h incubation, relative to untreated (DMSO) cells
Protocol: Cell culture. HeLa-GFP cells were cultured in DMEM media supplemented with 10% heat-inactivated newborn calf serum as previously described (Montoya et al., 2004). Stock cultures were prewashed twice with PBS before the treatment of trypsin for cell resuspension and subsequently re-plated at the concentration of 4,000 cells/well.
HeLa-GFP fluorometric cytotoxicity assay. All cell lines were seeded in clear-bottomed 96-well assay plates (3603, Costar, Corning Inc., Corning, N.Y.) in order to minimized background fluorescence. HeLa cells were grown in a total volume of 0.2 ml of medium and incubated overnight for proper cell attachment. The quinone compounds were then added to each well (in triplicate) and then incubated for a period of 18 hr. For the determination of fluorescence, the assay plates were then read using the Fluoroskan Ascent F1 fluorometer (Thermo Electron Corp.) set at the excitation and emission parameters of 485 and 518 nm, respectively. Since the HeLa-GFP cell line is adherent, the fluorometer was set to read from the bottom of the plate for closer proximity to the cells. Before the readings were performed, all supernatant media was removed to avoid any background interference and thus enhancing the sensitivity of the optical readings. For calibration purposes, three untreated control wells were used to determine the maximum level of fluorescence (100%). […] As a cytolysis control (complete loss of fluorescence), three wells containing cells were exposed to 0.2 ml of deionized water. These controls were then used to calculate the percent loss of GFP signal after compound exposure as determined by comparison with control wells containing cells that were not exposed to the chemical agent (see data analysis below).
Data analysis. All compounds, including controls, were screened in triplicate. The average of the three wells that were used for the removal of the background fluorescence (wells containing water for the HeLa-GFP assays and wells containing media alone for bacteria) was subtracted from each individual well. The mean of these triplicate values for each compound was then obtained. These mean values were then divided by the average obtained for maximum fluorescence (cells not treated with compound) and then multiplied by 100 to obtain the percentage values as shown in Table 1.

Compound	Percent-GFP-fluorescence after incubation with test compounds, HeLa-GFP (2 μg/ml)
CCOC(=O)c1ccccc1C1=C(CNC(=O)OC(C)(C)C)C(=O)c2ccccc2C1=O [Compound Q34]	86.0%
CCOC(=O)c1cccc(C2=C(CN(C(=O)OC(C)(C)C)C(=O)OC(C)(C)C)C(=O)c3ccccc3C2=O)c1 [Compound Q37]	90.0%
CCCC1=C(CCC)C(=O)c2ccccc2C1=O [Compound Q8]	89.0%
C[Si](C)(C)n1nnc(C2=C(CO)C(=O)c3ccccc3C2=O)c1CO [Compound Q31]	88.0%
COC(=O)c1ccccc1C1=C(CN(C(=O)OC(C)(C)C)C(=O)OC(C)(C)C)C(=O)c2ccccc2C1=O [Compound Q33]	88.0%
CCCC1=CC(=O)c2c(OC)cccc2C1=O [Compound Q16]	78.0%
COC(=O)c1ccccc1C1=C(CNC(=O)OC(C)(C)C)C(=O)c2ccccc2C1=O [Compound Q32]	88.0%
CCCCCC1=C(C)C(=O)c2ccccc2C1=O [Compound Q9]	90.0%
CCCCCCC1=CC(=O)c2ccccc2C1=O [Compound Q11]	84.0%
O=C1c2ccccc2C(=O)C2(c3ccccc3)OC12c1ccccc1 (stereo not shown) [Compound Q20]	28.0%
CCCCC12OC1(c1ccccc1)C(=O)c1ccccc1C2=O (stereo not shown) [Compound Q22]	75.0%
CCCC1=C(CC)C(=O)c2ccccc2C1=O [Compound Q13]	89.0%
CCCC1=C(CCC)C(=O)c2c(OC)cccc2C1=O [Compound Q19]	78.0%
CCCC12OC1(CC)C(=O)c1ccccc1C2=O (stereo not shown) [Compound Q27]	21.0%
CCOC(=O)c1ccc(C2=C(CNC(=O)OC(C)(C)C)C(=O)c3ccccc3C2=O)cc1 [Compound Q38]	81.0%
O=C1C=C(c2ccccc2)C(=O)c2ccccc21 [Compound Q7]	13.0%
CCCCCCCC1=CC(=O)c2c(OC)cccc2C1=O [Compound Q18]	88.0%
CCCCCC1=CC(=O)c2ccccc2C1=O [Compound Q10]	84.0%
CCCCCCCC1=CC(=O)c2ccccc2C1=O [Compound Q12]	81.0%
CC(C)=CCC1=C(O)C(=O)c2ccccc2C1=O [Compound Q4, lapachol, reference compound]	70.0%
CCCCCCC1=CC(=O)c2c(OC)cccc2C1=O [Compound Q17]	80.0%
CC12OC1(c1ccccc1)C(=O)c1ccccc1C2=O (stereo not shown) [Compound Q21]	57.0%
O=C1C=C(CCCO)C(=O)c2ccccc21 [Compound Q14]	83.0%
CCOC(=O)c1ccc(C2=C(CN(C(=O)OC(C)(C)C)C(=O)OC(C)(C)C)C(=O)c3ccccc3C2=O)cc1 [Compound Q39]	88.0%
CCOC(=O)c1cccc(C2=C(CNC(=O)OC(C)(C)C)C(=O)c3ccccc3C2=O)c1 [Compound Q36]	89.0%

same assay, conditions: 20 μg/ml, 18 h incubation, relative to untreated (DMSO) cells

Compound	Percent-GFP-fluorescence after incubation with test compounds, HeLa-GFP (20 μg/ml)
CCOC(=O)c1ccccc1C1=C(CNC(=O)OC(C)(C)C)C(=O)c2ccccc2C1=O [Compound Q34]	49.0%
CCOC(=O)c1cccc(C2=C(CN(C(=O)OC(C)(C)C)C(=O)OC(C)(C)C)C(=O)c3ccccc3C2=O)c1 [Compound Q37]	62.0%
CCCC1=C(CCC)C(=O)c2ccccc2C1=O [Compound Q8]	16.0%
C[Si](C)(C)n1nnc(C2=C(CO)C(=O)c3ccccc3C2=O)c1CO [Compound Q31]	82.0%
COC(=O)c1ccccc1C1=C(CN(C(=O)OC(C)(C)C)C(=O)OC(C)(C)C)C(=O)c2ccccc2C1=O [Compound Q33]	62.0%
CCCC1=CC(=O)c2c(OC)cccc2C1=O [Compound Q16]	10.0%
COC(=O)c1ccccc1C1=C(CNC(=O)OC(C)(C)C)C(=O)c2ccccc2C1=O [Compound Q32]	57.0%
CCCCCC1=C(C)C(=O)c2ccccc2C1=O [Compound Q9]	31.0%
CCCCCCC1=CC(=O)c2ccccc2C1=O [Compound Q11]	14.0%
O=C1c2ccccc2C(=O)C2(c3ccccc3)OC12c1ccccc1 (stereo not shown) [Compound Q20]	29.0%
CCCCC12OC1(c1ccccc1)C(=O)c1ccccc1C2=O (stereo not shown) [Compound Q22]	14.0%
CCCC1=C(CC)C(=O)c2ccccc2C1=O [Compound Q13]	21.0%
CCCC1=C(CCC)C(=O)c2c(OC)cccc2C1=O [Compound Q19]	38.0%
CCCC12OC1(CC)C(=O)c1ccccc1C2=O (stereo not shown) [Compound Q27]	21.0%
CCOC(=O)c1ccc(C2=C(CNC(=O)OC(C)(C)C)C(=O)c3ccccc3C2=O)cc1 [Compound Q38]	61.0%
O=C1C=C(c2ccccc2)C(=O)c2ccccc21 [Compound Q7]	25.0%
CCCCCCCC1=CC(=O)c2c(OC)cccc2C1=O [Compound Q18]	22.0%
CCCCCC1=CC(=O)c2ccccc2C1=O [Compound Q10]	52.0%
CCCCCCCC1=CC(=O)c2ccccc2C1=O [Compound Q12]	14.0%
CC(C)=CCC1=C(O)C(=O)c2ccccc2C1=O [Compound Q4, lapachol, reference compound]	3.0%
CCCCCCC1=CC(=O)c2c(OC)cccc2C1=O [Compound Q17]	18.0%
CC12OC1(c1ccccc1)C(=O)c1ccccc1C2=O (stereo not shown) [Compound Q21]	23.0%
O=C1C=C(CCCO)C(=O)c2ccccc21 [Compound Q14]	29.0%
CCOC(=O)c1ccc(C2=C(CN(C(=O)OC(C)(C)C)C(=O)OC(C)(C)C)C(=O)c3ccccc3C2=O)cc1 [Compound Q39]	62.0%
CCOC(=O)c1cccc(C2=C(CNC(=O)OC(C)(C)C)C(=O)c3ccccc3C2=O)c1 [Compound Q36]	59.0%

tested on: E. coli-GFP; assay: Toxicity assay with GFP-expressing E. coli; details: 20 μg/ml, 10 h incubation, relative to untreated bacteria
Protocol: (§1) E. coli-GFP cells were grown in LB broth media while the MAC104 M. avium strain was grown in 7H9-ADC media.
(§2) Toxicity assays with GFP-expressing bacteria. E. coli was transformed with a GFP-expression plasmid that also confers tetracycline resistance was kindly provided by Dr. David Schneider (Elrod-Erickson et al., 2000). […] Both bacterial strains were grown and selected based on antibiotic resistance and GFP expression. All toxicity assays were performed using the plates and fluorometric parameters described in the previous section. Bacterial cell suspensions were seeded in a final volume of 100 μl at an optical density of 0.05 and 0.25 at 650 nm, for E. coli-GFP and M. avium-GFP, respectively. After exposure to the test compounds, assay plates were incubated at 37° C. in a humid environment to prevent dehydration in the wells. Unlike the HeLa-GFP assays, reading were performed without removing the supernatants to avoid loss of cells. Several untreated wells containing bacteria and media were used to determine the maximum level of fluorescence. Several wells containing media alone (no bacteria) were included in each assay to remove background fluorescence.
(§3) Data analysis. All compounds, including controls, were screened in triplicate. The average of the three wells that were used for the removal of the background fluorescence (wells containing water for the HeLa-GFP assays and wells containing media alone for bacteria) was subtracted from each individual well. The mean of these triplicate values for each compound was then obtained.

Compound	Percent-GFP-fluorescence after incubation with test compounds, E. coli-GFP (20 μg/ml)
CCOC(=O)c1ccccc1C1=C(CNC(=O)OC(C)(C)C)C(=O)c2ccccc2C1=O [Compound Q34]	87.0%
CCOC(=O)c1cccc(C2=C(CN(C(=O)OC(C)(C)C)C(=O)OC(C)(C)C)C(=O)c3ccccc3C2=O)c1 [Compound Q37]	105.0%
CCCC1=C(CCC)C(=O)c2ccccc2C1=O [Compound Q8]	134.0%
C[Si](C)(C)n1nnc(C2=C(CO)C(=O)c3ccccc3C2=O)c1CO [Compound Q31]	107.0%
COC(=O)c1ccccc1C1=C(CN(C(=O)OC(C)(C)C)C(=O)OC(C)(C)C)C(=O)c2ccccc2C1=O [Compound Q33]	102.0%
CCCC1=CC(=O)c2c(OC)cccc2C1=O [Compound Q16]	127.0%
COC(=O)c1ccccc1C1=C(CNC(=O)OC(C)(C)C)C(=O)c2ccccc2C1=O [Compound Q32]	99.0%
CCCCCC1=C(C)C(=O)c2ccccc2C1=O [Compound Q9]	115.0%
CCCCCCC1=CC(=O)c2ccccc2C1=O [Compound Q11]	98.0%
O=C1c2ccccc2C(=O)C2(c3ccccc3)OC12c1ccccc1 (stereo not shown) [Compound Q20]	86.0%
CCCCC12OC1(c1ccccc1)C(=O)c1ccccc1C2=O (stereo not shown) [Compound Q22]	110.0%
CCCC1=C(CC)C(=O)c2ccccc2C1=O [Compound Q13]	93.0%
CCCC1=C(CCC)C(=O)c2c(OC)cccc2C1=O [Compound Q19]	99.0%
CCCC12OC1(CC)C(=O)c1ccccc1C2=O (stereo not shown) [Compound Q27]	117.0%
CCOC(=O)c1ccc(C2=C(CNC(=O)OC(C)(C)C)C(=O)c3ccccc3C2=O)cc1 [Compound Q38]	103.0%
O=C1C=C(c2ccccc2)C(=O)c2ccccc21 [Compound Q7]	89.0%
CCCCCCCC1=CC(=O)c2c(OC)cccc2C1=O [Compound Q18]	112.0%
CCCCCC1=CC(=O)c2ccccc2C1=O [Compound Q10]	110.0%
CCCCCCCC1=CC(=O)c2ccccc2C1=O [Compound Q12]	82.0%
CC(C)=CCC1=C(O)C(=O)c2ccccc2C1=O [Compound Q4, lapachol, reference compound]	56.0%
CCCCCCC1=CC(=O)c2c(OC)cccc2C1=O [Compound Q17]	115.0%
CC12OC1(c1ccccc1)C(=O)c1ccccc1C2=O (stereo not shown) [Compound Q21]	122.0%
O=C1C=C(CCCO)C(=O)c2ccccc21 [Compound Q14]	90.0%
CCOC(=O)c1ccc(C2=C(CN(C(=O)OC(C)(C)C)C(=O)OC(C)(C)C)C(=O)c3ccccc3C2=O)cc1 [Compound Q39]	108.0%
CCOC(=O)c1cccc(C2=C(CNC(=O)OC(C)(C)C)C(=O)c3ccccc3C2=O)c1 [Compound Q36]	100.0%

tested on: M. avium-GFP (strain MAC104); assay: Toxicity assay with GFP-expressing M. avium; details: 20 μg/ml, 18 h incubation, relative to untreated bacteria
Protocol: as §1, §2, §3

Compound	Percent-GFP-fluorescence after incubation with test compounds, M. avium-GFP (20 μg/ml)
CCOC(=O)c1ccccc1C1=C(CNC(=O)OC(C)(C)C)C(=O)c2ccccc2C1=O [Compound Q34]	64.0%
CCOC(=O)c1cccc(C2=C(CN(C(=O)OC(C)(C)C)C(=O)OC(C)(C)C)C(=O)c3ccccc3C2=O)c1 [Compound Q37]	92.0%
CCCC1=C(CCC)C(=O)c2ccccc2C1=O [Compound Q8]	102.0%
C[Si](C)(C)n1nnc(C2=C(CO)C(=O)c3ccccc3C2=O)c1CO [Compound Q31]	94.0%
COC(=O)c1ccccc1C1=C(CN(C(=O)OC(C)(C)C)C(=O)OC(C)(C)C)C(=O)c2ccccc2C1=O [Compound Q33]	74.0%
CCCC1=CC(=O)c2c(OC)cccc2C1=O [Compound Q16]	105.0%
COC(=O)c1ccccc1C1=C(CNC(=O)OC(C)(C)C)C(=O)c2ccccc2C1=O [Compound Q32]	80.0%
CCCCCC1=C(C)C(=O)c2ccccc2C1=O [Compound Q9]	85.0%
CCCCCCC1=CC(=O)c2ccccc2C1=O [Compound Q11]	69.0%
O=C1c2ccccc2C(=O)C2(c3ccccc3)OC12c1ccccc1 (stereo not shown) [Compound Q20]	77.0%
CCCCC12OC1(c1ccccc1)C(=O)c1ccccc1C2=O (stereo not shown) [Compound Q22]	91.0%
CCCC1=C(CC)C(=O)c2ccccc2C1=O [Compound Q13]	72.0%
CCCC1=C(CCC)C(=O)c2c(OC)cccc2C1=O [Compound Q19]	73.0%
CCCC12OC1(CC)C(=O)c1ccccc1C2=O (stereo not shown) [Compound Q27]	133.0%
CCOC(=O)c1ccc(C2=C(CNC(=O)OC(C)(C)C)C(=O)c3ccccc3C2=O)cc1 [Compound Q38]	119.0%
O=C1C=C(c2ccccc2)C(=O)c2ccccc21 [Compound Q7]	35.0%
CCCCCCCC1=CC(=O)c2c(OC)cccc2C1=O [Compound Q18]	127.0%
CCCCCC1=CC(=O)c2ccccc2C1=O [Compound Q10]	81.0%
CCCCCCCC1=CC(=O)c2ccccc2C1=O [Compound Q12]	66.0%
CC(C)=CCC1=C(O)C(=O)c2ccccc2C1=O [Compound Q4, lapachol, reference compound]	26.0%
CCCCCCC1=CC(=O)c2c(OC)cccc2C1=O [Compound Q17]	100.0%
CC12OC1(c1ccccc1)C(=O)c1ccccc1C2=O (stereo not shown) [Compound Q21]	57.0%
O=C1C=C(CCCO)C(=O)c2ccccc21 [Compound Q14]	58.0%
CCOC(=O)c1ccc(C2=C(CN(C(=O)OC(C)(C)C)C(=O)OC(C)(C)C)C(=O)c3ccccc3C2=O)cc1 [Compound Q39]	96.0%
CCOC(=O)c1cccc(C2=C(CNC(=O)OC(C)(C)C)C(=O)c3ccccc3C2=O)c1 [Compound Q36]	93.0%
